Assay results taken from patent US11084783B2, “O-alkyl-benzylideneguanidine derivatives and therapeutic use for the treatment of disorders associated with an accumulation of misfolded proteins” (INFLECTIS BIOSCIENCE, priority 2014, dated 2021).

Tests used:
Assay type in all cases: cell-based
[1] = tested on: interferon-gamma injured rat oligodendrocytes; assay: In vitro multiple sclerosis model: interferon-gamma injured rat oligodendrocytes co-cultured with neurons; conditions: interferon-gamma 70 U/ml, 48 H; total number of O4 cells
Procedure: Neurons/OPC were cultured as previously describes by Yang et al. (2005 J Neurosci Methods;149(1) pp50-6) with modifications. Briefly, the full brain (without cerebellum) obtained from 17-day old rat embryos (Wistar, Janvier labs) were removed. The full brains were treated for 20 min at 37° C. with a trypsin-EDTA (Pan Biotech) solution at a final concentration of 0.05% trypsin and 0.02% EDTA. The dissociation was stopped by addition of Dulbecco's modified Eagle's medium (DMEM) with 4.5 g/liter of glucose (Pan Biotech), containing DNAse I grade II (final concentration 0.5 mg/ml; Pan Biotech, Batch: h140508) and 10% fetal calf serum (FCS; Invitrogen, Batch: 41Q7218K). Cells were mechanically dissociated by three forced passages through the tip of a 10-ml pipette. Cells were then centrifuged at 515 g for 10 min at 4° C. The supernatant was discarded, and the pellet was resuspended in a defined culture medium consisting of Neurobasal medium (Invitrogen, Batch: 1636133) with a 2% solution of B27 supplement (Invitrogen, Batch: 1660670), 2 mmol/liter of L-glutamine (Pan Biotech), 2% of PS solution, and, 1% of FCS and 10 ng/ml of platelet derived growth factor (PDGF-AA, Batch: H131205). The cells were seeded at a density of 20 000 cells per well in 96 well plates precoated with PLL (BD corning, Batch: 6614022) and laminine (Sigma, Batch: 083M4034V). The plates were maintained at 37° C. into a humidified incubator, in an atmosphere of air (95%)-CO2 (5%). Half of the medium was changed every 2 days with fresh medium. On days 18, test compounds were pre-incubated 1 hour before interferon-gamma (70 U/ml, 48H, R&D system, Batch: AAL2214081) application.
On day 18 of culture, test compounds (4 concentrations) were solved in culture medium and then pre-incubated with oligodendrocyte co-cultured with neurons for 1 hour before the interferon-gamma (70 U/ml, 48H) application. […]
For each condition, 30 pictures per well were taken using ImageXpress (Molecular Device) with 20× magnification. […] All values were expressed as mean +/−SEM (s.e.mean) (n=6 wells per condition).

[2] = tested on: T181P mutated DM20 protein expressed in Human 293T cell; assay: In vitro model of leukodystrophy (PMD): overexpression of mutated DM20, protein accumulation by western-blot; conditions: 5 microM, western-blot 48h
Procedure: Human open reading frame (ORF) sequences for PLP1, DM20 and Insulin were obtained from Life Technologies (Invitrogen) (IOH41689, IOH5252 and IOH7334 respectively). Construct cloning into the expression plasmid pDEST26 (Invitrogen) was performed by Gateway® LR Clonase™ II Enzyme Mix (Invitrogen). ORF mutations were carried out using the QuikChange Lightning Site-Directed Mutagenesis Kit (Stratagene) (T181P mutation for PLP1 and DM20 ORFs, Akita (C96Y) for Insulin ORF).
One day before transfection, 293T cells were plated at 300,000 cells/mL. 293T cells were transfected with PLP1 and DM20 mutant constructs using Lipofectamine 2000 according to manufacturer's procedure. After transfection, cells were treated with molecules or left untreated.
As a control, cells were transfected with native forms of the proteins. 48h later, cellular lysates were harvested. Protein accumulation was assessed by western-blot.

Min6 insulinoma cell = assay: Min6 cell line cytoprotection from ER stress (tunicamycin); conditions: 6 hour exposure to tunicamycin 2.5 μg/mL, different concentrations, viability 72h
Procedure: (§1) Cells were plated in 96 well plates at a density of 0.5.10^6 cells/mL for Min6 cell line, 0,4.10^6 cells/mL for INS1 cell line the day before the treatment. ER stress was elicited by addition of 2.5 μg/mL tunicamycin (Sigma Aldrich) together with phosphatases inhibitors. Media were changed 6h later with fresh media and the cytoprotection was maintained by the addition of phosphatases inhibitors. Cell viability was assessed by measuring the reduction of WST-8 into formazan using Cell Counting Kit-8 (Sigma) according to the supplier's recommendation, 72h after tunicamycin treatment.

INS1 insulinoma cell = assay: INS1 cell line cytoprotection from ER stress (tunicamycin); conditions: 6 hour exposure to tunicamycin 2.5 μg/mL, different concentrations, viability 72h
Procedure: as §1

With CCONC(=N)N/N=C/c1c(F)cccc1Cl [Compound 17, 2-(2-chloro-6-fluorobenzylidene)-N-ethoxyhydrazinecarboximidamide] the “protection of interferon-gamma injured rat oligodendrocytes (FIG. 2)” value (from here on “protection”) [1] was “dose dependent protection”, the “prevention of accumulation of T181P mutated DM20 protein (FIG. 5)” value [2] was “able to prevent the accumulation” and the “prevention of Min6 insulinoma cell death (FIG. 7)” value (Min6 insulinoma cell) was “prevent Min6 insulinoma cell death”. For the same compound, the “prevention of INS1 insulinoma cell death (FIG. 8)” value (shortened to “prevention … (FIG. 8)”) (INS1 insulinoma cell) was “prevent INS1 insulinoma cell death”.

In the case of CCONC(=N)N/N=C/c1c(Cl)cccc1Cl [Compound 11, 2-(2,6-dichlorobenzylidene)-N-ethoxyhydrazinecarboximidamide], the “protection” value [1] is reported as “dose dependent protection” and the “prevention … (FIG. 8)” value (INS1 insulinoma cell) is reported as “prevent INS1 insulinoma cell death”.

With CCCONC(=N)N/N=C/c1ccccc1Cl [Compound 12, 2-(2-chlorobenzylidene)-N-propoxyhydrazinecarboximidamide] the “protection” value [1] was “dose dependent protection”, the “prevention of accumulation of T181P mutated DM20 protein (FIG. 5)” value [2] was “able to prevent the accumulation” and the “prevention of Min6 insulinoma cell death (FIG. 7)” value (Min6 insulinoma cell) was “prevent Min6 insulinoma cell death”. For the same compound, the “prevention … (FIG. 8)” value (INS1 insulinoma cell) was “prevent INS1 insulinoma cell death”.
